Read-outs that look alike come from different tables or passages of the source.

The values that follow come from patent US10399940B2, “Substituted pyrrolidines and methods of use” (AbbVie S.à.r.l., priority 2016, dated 2019).

For the assay, the target named is T1, F508delCFTR (Homo sapiens, UniProt P13569, DEL508-508).
T1 construct: expressed in transfected cells; host or cells: CFBE41o- (human lung derived epithelial cell line), doxycycline-inducible expression
Nature of the assay: Cell Surface Expression-Horse Radish Peroxidase (CSE-HRP) assay. The conditions noted are these: CFBE41o-F508delCFTR-HRP cells; for Maximum % activity (with co-corrector): with co-corrector (2 μM); for Maximum % activity (with co-corrector) / Maximum % activity (without co-corrector): normalized to on-plate positive control, highest concentration 20 μM. It is filed as cell-based. As to the method: Cell Surface Expression-Horse Radish Peroxidase (CSE-HRP) Assay
A cellular assay for measuring the F508delCFTR cell surface expression after correction with test compounds either without or with a co-corrector (2 μM of 3-[(2R,4R)-4-({[1-(2,2-difluoro-1,3-benzodioxol-5-yl)cyclopropyl]carbonyl}amino)-7-methoxy-3,4-dihydro-2H-chromen-2-yl]benzoic acid), was developed in human lung derived epithelial cell line (CFBE41o-) (Veit G et al, (2012) Mol Biol Cell. 23(21): 4188-4202). The development was achieved by expressing the F508delCFTR mutation along with a horseradish peroxidase (HRP) in the fourth exofacial loop, and then measuring the HRP activity using luminescence readout from these cells, CFBE41o-F508delCFTR-HRP, that were incubated overnight with the test corrector compounds, either without or with the co-corrector. For this primary assay, the CFBE41o-F508delCFTR-HRP cells were plated in 384-well plates (Greiner Bio-one; Cat 781080) at 4,000 cells/well along with 0.5 μg/mL doxycycline to induce the F508delCFTR-HRP expression and further incubated at 37° C., 5% CO2 for 72 hours. The test compounds were then added either without or with a co-corrector at the required concentrations and further incubated for 18-24 hours at 33° C. The highest concentration tested was 20 μM with an 8-point concentration response curve using a 3-fold dilution in both the test compound without or with the co-corrector. Three replicate plates were run to determine one EC50. All plates contained negative controls (dimethyl sulfoxide, DMSO) and positive control (2 μM of 3-[(2R,4R)-4-({[1-(2,2-difluoro-1,3-benzodioxol-5-yl)cyclopropyl]carbonyl}amino)-7-methoxy-3,4-dihydro-2H-chromen-2-yl]benzoic acid) as well as on-plate concentration response of the positive control. Post incubation, the plates were washed 5× times with Dulbecco's phosphate buffered saline (DPBS), followed by the addition of the HRP substrate, luminol (50 μL), and measuring the HRP activity using luminescence readout on EnVision® Multilabel Plate Reader (Perkin Elmer; product number 2104-0010). The raw counts from the experiment were analyzed using Accelrys® Assay Explorer v3.3.
Z′ greater than 0.5 was used as passing quality control criteria for the plates.
The Z′ is defined as: 1−[3*SDPositive Control+3*SDNegative Control/Absolute(MeanPositive Control−MeanNegative Control)] wherein “SD” is standard deviation.
The % activity measured at each of the 8 test concentrations of the test compound added either without or with a co-corrector (2 μM of 3-[(2R,4R)-4-({[1-(2,2-difluoro-1,3-benzodioxol-5-yl)cyclopropyl]carbonyl}amino)-7-methoxy-3,4-dihydro-2H-chromen-2-yl]benzoic acid) was normalized to the on-plate positive control using the following formulae: % activity(Test compound without co-corrector)=[(test compound without co-corrector response−DMSO response)/(positive control response−DMSO response)]*100 % activity(Test compound with co-corrector)=[(test compound with co-corrector response−DMSO response)/(positive control response−DMSO response)]*100
The maximum % activity achieved for the test compound either without or with a co-corrector at any tested concentration is presented in Table 1 along with the respective EC50's calculated using the following general sigmoidal curve with variable Hill slope equation (described as Model 42 in the Accelrys® Assay Explorer v3.3 software): y=(a−d)/(1+(x/c)^b)+d
General sigmoidal curve with concentration, response, top, bottom, EC50 and Hill slope. This model describes a sigmoidal curve with an adjustable baseline, a. The equation can be used to fit curves where response is either increasing or decreasing with respect to the independent variable, “x”. • “x” is a concentration of drug under test. • “y” is the response. • “a” is the maximum response, and “d” is the minimum response • “c” is the inflection point (EC50) for the curve. That is, “y” is halfway between the lower and upper asymptotes when x=c. “b” is the slope-factor or Hill coefficient. […]

The mark [1] stands for this setting: test compound without co-corrector, 18-24 hours at 33° C., read-out: EC50 (without co-corrector).
Where [2] appears, read: with co-corrector (2 μM of 3-[(2R,4R)-4-({[1-(2,2-difluoro-1,3-benzodioxol-5-yl)cyclopropyl]carbonyl}amino)-7-methoxy-3,4-dihydro-2H-chromen-2-yl]benzoic acid), read-out: EC50 (with co-corrector).

T1 sequence (P13569 with tags, fused parts or gaps DEL508-508): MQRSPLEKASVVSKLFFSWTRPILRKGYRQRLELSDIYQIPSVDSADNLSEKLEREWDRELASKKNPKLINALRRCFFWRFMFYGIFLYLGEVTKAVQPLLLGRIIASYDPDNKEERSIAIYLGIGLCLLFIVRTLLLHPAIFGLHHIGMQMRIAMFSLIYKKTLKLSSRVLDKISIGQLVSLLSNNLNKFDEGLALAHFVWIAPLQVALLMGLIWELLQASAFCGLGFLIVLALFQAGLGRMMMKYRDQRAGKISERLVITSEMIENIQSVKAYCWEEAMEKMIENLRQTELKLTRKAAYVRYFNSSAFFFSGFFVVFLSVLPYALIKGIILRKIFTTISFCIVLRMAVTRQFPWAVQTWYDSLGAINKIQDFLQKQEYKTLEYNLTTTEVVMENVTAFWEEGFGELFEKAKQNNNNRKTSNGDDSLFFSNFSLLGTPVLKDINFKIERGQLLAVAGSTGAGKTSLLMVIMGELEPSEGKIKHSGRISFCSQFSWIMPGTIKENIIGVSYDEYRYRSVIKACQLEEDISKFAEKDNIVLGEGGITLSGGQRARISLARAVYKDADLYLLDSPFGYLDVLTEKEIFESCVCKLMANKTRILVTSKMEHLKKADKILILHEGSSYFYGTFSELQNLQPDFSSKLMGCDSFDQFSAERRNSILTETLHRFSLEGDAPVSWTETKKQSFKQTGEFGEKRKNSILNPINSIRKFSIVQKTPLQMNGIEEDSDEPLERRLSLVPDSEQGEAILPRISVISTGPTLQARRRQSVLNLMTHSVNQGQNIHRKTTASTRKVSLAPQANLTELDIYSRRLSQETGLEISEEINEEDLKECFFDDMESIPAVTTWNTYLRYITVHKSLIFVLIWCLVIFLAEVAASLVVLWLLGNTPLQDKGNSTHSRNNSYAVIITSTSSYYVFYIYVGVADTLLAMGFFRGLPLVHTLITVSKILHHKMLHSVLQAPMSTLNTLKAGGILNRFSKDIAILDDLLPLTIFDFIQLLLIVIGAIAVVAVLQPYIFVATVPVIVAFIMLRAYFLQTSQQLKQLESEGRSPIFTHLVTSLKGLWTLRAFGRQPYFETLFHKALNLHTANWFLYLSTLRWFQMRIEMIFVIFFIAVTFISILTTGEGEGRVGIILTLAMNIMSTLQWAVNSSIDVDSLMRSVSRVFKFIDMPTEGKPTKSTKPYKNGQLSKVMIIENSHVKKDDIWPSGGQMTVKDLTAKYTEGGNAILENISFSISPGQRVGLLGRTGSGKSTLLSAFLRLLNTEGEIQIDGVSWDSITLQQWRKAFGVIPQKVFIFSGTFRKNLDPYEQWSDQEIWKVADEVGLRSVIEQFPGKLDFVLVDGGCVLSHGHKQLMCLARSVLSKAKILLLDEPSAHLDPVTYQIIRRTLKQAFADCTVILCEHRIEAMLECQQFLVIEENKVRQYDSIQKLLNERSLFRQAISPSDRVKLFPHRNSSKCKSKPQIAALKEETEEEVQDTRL

The term EC50 denotes the concentration giving half of the maximal effect. For the compound `COc1ncc(C(F)(F)F)cc1CO[C@H]1[C@H](C(C)(C)C)[C@@H](C(=O)O)N(C(=O)[C@@H]2CCCCO2)[C@H]1c1ccccc1-c1ccncc1` [Example 196, (2S,3R,4S,5S)-3-tert-butyl-4-{[2-methoxy-5-(trifluoromethyl)pyridin-3-yl]methoxy}-1-[(2S)-oxane-2-carbonyl]-5-[2-(pyridin-4-yl)phenyl]pyrrolidine-2-carboxylic acid], the “Maximum % activity (with co-corrector)” value was “+++ (≥350)”; the “Maximum % activity (without co-corrector)” value is “++ (≥100 and <200)”. Besides, the EC50 under setting [1] was 1000 to 10000 nM. Besides, the EC50 under setting [2] was 1000 to 10000 nM.
Consider `COc1nc2ccccc2cc1CO[C@H]1[C@H](C(C)(C)C)[C@@H](C(=O)O)N(C(=O)[C@H]2CCCCO2)[C@H]1c1ccccc1C(C)C` [Example 131, (2S,3R,4S,5S)-3-tert-butyl-4-[(2-methoxyquinolin-3-yl)methoxy]-1-[(2R)-oxane-2-carbonyl]-5-[2-(propan-2-yl)phenyl]pyrrolidine-2-carboxylic acid], for which the “Maximum % activity (with co-corrector)” value is “++ (≥150 and <350)”; the “Maximum % activity (without co-corrector)” value is “+ (<100)”. In addition, the EC50 under setting [1] was less than 1000 nM. Also, the EC50 under setting [2] was less than 1000 nM.
Take `COc1ncc(C(F)(F)F)cc1CO[C@H]1[C@H](C(C)(C)C)[C@@H](C(=O)O)N(C(=O)[C@@H]2CCCCO2)[C@H]1c1ccccc1-c1cnn(C)c1` [Example 193, (2S,3R,4S,5S)-3-tert-butyl-4-{[2-methoxy-5-(trifluoromethyl)pyridin-3-yl]methoxy}-5-[2-(1-methyl-1H-pyrazol-4-yl)phenyl]-1-[(2S)-oxane-2-carbonyl]pyrrolidine-2-carboxylic acid]: the “Maximum % activity (with co-corrector)” value is “+++ (≥350)”; the “Maximum % activity (without co-corrector)” value was “++ (≥100 and <200)”. Moreover, under setting [1], the EC50 lay in the range of 1000 to 10000 nM. Moreover, the EC50 under setting [2] was 1000 to 10000 nM.
Regarding `COc1ncc(C(C)(C)C)cc1CO[C@@H]1[C@H](C(C)(C)C)[C@@H](C(=O)O)N(C(=O)OC(C)C)[C@H]1c1ccccc1F` [Example 75, (2S,3R,4R,5S)-3-tert-butyl-4-[(5-tert-butyl-2-methoxypyridin-3-yl)methoxy]-5-(2-fluorophenyl)-1-{[(propan-2-yl)oxy]carbonyl}pyrrolidine-2-carboxylic acid], the “Maximum % activity (with co-corrector)” value is “+ (<150)” and the “Maximum % activity (without co-corrector)” value is “+ (<100)”. In addition, under setting [1], the EC50 is more than 10000 nM. Also, the EC50 under setting [2] is more than 10000 nM.
On to `CCc1ccccc1[C@H]1[C@@H](OCc2cc3ccccc3nc2OC)[C@H](C(C)(C)C)[C@@H](C(=O)O)N1C(=O)[C@@H]1CCCCO1` [Example 254, (2S,3R,4S,5S)-3-tert-butyl-5-(2-ethylphenyl)-4-[(2-methoxyquinolin-3-yl)methoxy]-1-[(2S)-oxane-2-carbonyl]pyrrolidine-2-carboxylic acid], for which the “Maximum % activity (with co-corrector)” value is “+++ (≥350)” and the “Maximum % activity (without co-corrector)” value is on record as “+++ (≥200)”. Also, the 50% effective concentration (EC50) under setting [1] lay within 1000 to 10000 nM. For the same compound, under setting [2], the EC50 was less than 1000 nM.
The like results for `COc1ncc(C(F)(F)F)cc1CO[C@@H]1[C@H](C(C)(C)C)[C@@H](C(=O)O)N(C(=O)C2CCCC2)[C@H]1c1cccnc1OC(C)C` [Example 163, (2S,3R,4R,5S)-3-tert-butyl-1-(cyclopentanecarbonyl)-4-{[2-methoxy-5-(trifluoromethyl)pyridin-3-yl]methoxy}-5-{2-[(propan-2-yl)oxy]pyridin-3-yl}pyrrolidine-2-carboxylic acid] were, in that order, “+ (<150)”, “+ (<100)”, more than 10000 nM and more than 10000 nM.
The like results for `COc1ncc(C2CCC2)cc1CO[C@H]1[C@H](C(C)(C)C)[C@@H](C(=O)O)N(C(=O)OC(C)C)[C@H]1c1ccccc1C(F)(F)F` [Example 145, (2S,3R,4S,5S)-3-tert-butyl-4-[(5-cyclobutyl-2-methoxypyridin-3-yl)methoxy]-1-{[(propan-2-yl)oxy]carbonyl}-5-[2-(trifluoromethyl)phenyl]pyrrolidine-2-carboxylic acid] were, in that order, “+++ (≥350)”, “+ (<100)”, 1000 to 10000 nM and 1000 to 10000 nM.
In the case of `COc1ccc(C(C)(C)C)cc1CO[C@H]1[C@H](C(C)(C)C)[C@@H](C(=O)O)N(C(=O)O[C@@H](C)C(F)(F)F)[C@H]1c1cccnc1OC(C)C` [Example 274, (2S,3R,4S,5S)-3-tert-butyl-4-[(5-tert-butyl-2-methoxyphenyl)methoxy]-5-{2-[(propan-2-yl)oxy]pyridin-3-yl}-1-({[(2S)-1,1,1-trifluoropropan-2-yl]oxy}carbonyl)pyrrolidine-2-carboxylic acid], the “Maximum % activity (with co-corrector)” value was “+++ (≥350)” and the “Maximum % activity (without co-corrector)” value is listed as “+++ (≥200)”. Also, under setting [1], the EC50 is less than 1000 nM. Moreover, the EC50 under setting [2] is less than 1000 nM.
In the case of `COc1ncc(C2CCC2)cc1CO[C@H]1[C@H](C(C)(C)C)[C@@H](C(=O)O)N(C(=O)OC(C)C)[C@H]1c1ccccc1C(C)C` [Example 93, (2S,3R,4S,5S)-3-tert-butyl-4-[(5-cyclobutyl-2-methoxypyridin-3-yl)methoxy]-1-{[(propan-2-yl)oxy]carbonyl}-5-[2-(propan-2-yl)phenyl]pyrrolidine-2-carboxylic acid], the “Maximum % activity (with co-corrector)” value was “+++ (≥350)”; the “Maximum % activity (without co-corrector)” value is “++ (≥100 and <200)”. Moreover, the 50% effective concentration (EC50) under setting [1] is 1000 to 10000 nM. For the same compound, the EC50 under setting [2] lay within 1000 to 10000 nM.
For the compound `CCc1ccccc1[C@H]1[C@@H](OCc2cc(C3CCC3)cnc2OC)[C@H](C(C)(C)C)[C@@H](C(=O)O)N1C(=O)[C@@H]1CCCCO1` [Example 185, (2S,3R,4S,5S)-3-tert-butyl-4-[(5-cyclobutyl-2-methoxypyridin-3-yl)methoxy]-5-(2-ethylphenyl)-1-[(2S)-oxane-2-carbonyl]pyrrolidine-2-carboxylic acid], the “Maximum % activity (with co-corrector)” value is on record as “+++ (≥350)” and the “Maximum % activity (without co-corrector)” value is on record as “+++ (≥200)”. Also, the half-maximal effective concentration (EC50) under setting [1] is 1000 to 10000 nM. In addition, the EC50 under setting [2] is less than 1000 nM.
The like results for `COc1ncc(-c2ccccc2)cc1CO[C@H]1[C@H](C(C)(C)C)[C@@H](C(=O)O)N(C(=O)OC(C)C)[C@H]1c1ccccc1` [Example 42, (2S,3R,4S,5S)-3-tert-butyl-4-[(2-methoxy-5-phenylpyridin-3-yl)methoxy]-5-phenyl-1-{[(propan-2-yl)oxy]carbonyl}pyrrolidine-2-carboxylic acid] were, in that order, “+++ (≥350)”, “+ (<100)”, 1000 to 10000 nM and 1000 to 10000 nM.
